EC50, IC50 and outcome data for 69 compounds are collected here from PubChem BioAssay AID179 (DTP/NCI, 2004).

What is called EC50 is the concentration giving half of the maximal effect. Usually IC50 stands for the concentration that gives 50% inhibition. Read a high IC50 as lower potency.

“And” between values parts separate entries of the source, which are not always exact repeats. Equal values may be shown once. The source made the active and inactive calls.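 The calls were made as follows: active = compounds giving half or more protection of infected cells from virus-caused growth loss, again on retest; inactive = the rest.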 Where a SMILES comes first, the peptide text is derived from it. The star is where a group is joined. Boc = CC(C)(C)OC(=O)*; OBn = c1ccc(CO*)cc1; Bn = c1ccc(C*)cc1

The experiment deals with CEM cells HIV-1 protection, formazan growth assay. Description: NCI AIDS Antiviral Assay. Conditions: for IC50: measured here: growth of uninfected CEM cells. In short, it runs like this:
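Human CEM cells, uninfected and HIV-1-infected, received five drug concentrations, and growth was read by soluble formazan assay. Compounds giving at least 50% protection were retested; reproducible 100% protection defined confirmed active.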

In the case of `COc1ccc2c(c1)OCC1(O)Cc3ccccc3OC21` (stereo not given), the EC50 was more than 200 µM and the IC50 worked out at 107 µM. With `Cc1cc2c(=O)c3ccccc3oc2c(C#N)c1C`, the EC50 was more than 20 µM and the 50% inhibitory concentration (IC50) was more than 20 µM. On to `O=C1OCCOCCOC(=O)c2cccc(n2)C(=O)OCCOCCOC(=O)c2cccc1n2`, for which the EC50 is more than 525 µM and the half-maximal inhibitory concentration (IC50) is more than 525 µM.

For the compound `S=c1sscc1-c1ccccc1`, the EC50 is more than 200 µM and the IC50 is 186 µM. Turning to `CC1(C)CC(=O)c2c(-c3ccc(Cl)cc3)c(C#N)c(=S)n(C3OC(CO)C(O)C(O)C3O)c2C1` (stereo not given), the EC50 is more than 200 µM and the IC50 is 31.6 µM.

On to `Clc1cccc(NC2=NCCN=C(Nc3cccc(Cl)c3)SS2)c1`, for which the result was inactive. In the case of `N#Cc1cccc(N(C(=O)c2ccccc2)c2ccccc2)n1`, the EC50 was more than 200 µM and the IC50 was determined as 112 µM.

As to `COc1cc2cc(C(=O)N3CC(CCl)c4ccc([N+](C)(C)Cc5ccccc5[N+](=O)[O-])cc43)[nH]c2c(OC)c1OC` (stereo not given), the EC50 is more than 20 µM and the IC50 amounted to 2.24 µM. In the case of `COc1ccc(/C(=N\NC(=O)C(N)=O)C(c2ccc(OC)cc2)C2(O)C(=O)Nc3c(Cl)cccc32)cc1` (stereo not given), the EC50 was more than 18.2 µM and the IC50 was more than 18.2 µM.

Take `OC1CCC(C#CC#CC2CCC(O)CC2)CC1` (stereo not given): the EC50 was more than 100 µM and the IC50 is more than 100 µM. With `O=C(Cc1ccccc1)N/N=C(/c1nc2ccc([N+](=O)[O-])cc2[nH]c1=O)C(O)c1ccco1` (stereo not given), the EC50 is more than 209 µM and the IC50 is more than 209 µM. `CCn1c(=O)c(N=O)c(N)n(CCCO)c1=O`: the EC50 was more than 200 µM and the IC50 was more than 200 µM. For `COC(=O)C1CC2(C)C=CC1N(C(=O)OCc1ccccc1)C2` (stereo not given), the EC50 was 63.1 µM and the IC50 was determined as 102 µM. As for `O=C1C2c3[nH]c4ccccc4c3C3CCCCC3C2C(=O)N1c1ccccc1` (stereo not given), the result was inactive. `Cc1c(O)nc(CO)[nH]c1=O`: the EC50 was more than 200 µM and the concentration for half-maximal inhibition (IC50) is more than 200 µM.

Consider `COC(=O)C1C(C(=O)OC)C1(Br)CBr` (stereo not given), for which the EC50 is more than 200 µM and the IC50 amounted to 5.89 µM. As to `CCOc1ccc(N=Cc2c3ccccc3nc3ccccc23)cc1`, the outcome was inactive. With `[Pt].c1ccc(P(CCP(CCP(c2ccccc2)c2ccccc2)CCP(c2ccccc2)c2ccccc2)c2ccccc2)cc1`, the EC50 was more than 5.62 µM and the IC50 worked out at 2.95 µM. As for `CC1OC(OC2C(O[C@H]3CC[C@@]4(C)[C@@H](CC[C@@H]5[C@@H]4CC[C@]4(C)[C@@H]6[C@H](C[C@@H]54)O[C@]4(CC[C@@H](C)CO4)[C@H]6C)C3)OC(CO)C(OC3OC(CO)C(O)C(OC4OCC(O)C(O)C4O)C3OC3OCC(O)C(O)C3O)C2O)C(O)C(O)C1O` (stereo not given in full), the EC50 is more than 2 µM and the IC50 came to 0.832 µM. For `CCOC(=O)c1sc(C(=O)O)cc1-c1cccs1`, the half-maximal effective concentration (EC50) is 234 µM and the IC50 was determined as 501 µM.

For `Cn1nc(C(N)=O)c(=O)[nH]c1=O`, the EC50 is more than 200 µM and the IC50 is more than 200 µM. With `CCN(CC)CCOC(=O)/C=C/c1ccccc1`, the result was inactive.

As to `COC(=O)c1ccc(C(=O)OC)c2nc3cc(C)ccc3nc12`, the EC50 is more than 219 µM and the IC50 is more than 219 µM. In the case of `N#CC(c1ccc(Cl)cc1)c1cccc(C(C#N)c2ccc(Cl)cc2)n1` (stereo not given), the EC50 was more than 661 µM and the IC50 is more than 661 µM. Regarding `O=C(O)c1ccc(CS(=O)c2ccccc2C(=O)O)c([N+](=O)[O-])c1` (stereo not given), the EC50 was more than 708 µM and the IC50 is more than 708 µM. Take `CN(C)CCNC(=O)Cn1ccc(=O)c2c([N+](=O)[O-])cccc21`: the EC50 is more than 200 µM and the IC50 was more than 200 µM. `CCCCCCC(CCl)c1sc(-c2csc(CCNC(=O)OC(C)(C)C)n2)nc1C(=O)OC` (stereo not given): the EC50 was more than 200 µM and the IC50 is more than 200 µM. On to `CC(C)CC(NC(=O)C(Cc1ccccc1)NC(=O)C(COCc1ccccc1)NC(=O)OC(C)(C)C)C(=O)OCc1ccccc1` (stereo not drawn) (Boc-Ser(Bn)-Phe-Leu-OBn; configuration not given here), for which the EC50 is more than 200 µM and the IC50 was 13.2 µM. Compound `O=S(=O)(NCCO)c1cc[c]([Sb](=[O])([OH])[OH])cc1` came in with an EC50 of more than 200 µM and an IC50 of more than 200 µM. For `NC(=S)N/C=C\c1nc2ccccc2[nH]c1=O`, the EC50 is more than 200 µM and the half-maximal inhibitory concentration (IC50) is more than 200 µM. Regarding `COC12CC(=O)C(C(C)=O)=C(O)C1(C)c1c(OC(C)=O)c(C)c(O)c(C(C)=O)c1O2` (stereo not given), the EC50 was more than 603 µM and the IC50 was 10.7 µM. Consider `COC(=O)CCC(=O)N1CC1C` (stereo not given), for which the result was inactive. Take `O=C1C[C@]2(CC(O)CO)CC(O1)[C@@H](I)CC21OCCO1` (stereo not given in full): the EC50 was more than 200 µM and the IC50 is more than 200 µM. In the case of `O=C(CCC(=O)C(C(=O)c1ccccc1)c1ccccc1)Nc1cccc(C(F)(F)F)c1` (stereo not given), the outcome was inactive. For `Cc1ccc(Nc2nc3[nH]ccc3c(=O)[nH]2)cc1`, the EC50 is more than 200 µM and the IC50 was more than 200 µM. In the case of `N#CC(C#N)=CN1C(=O)CNC1=S`, the EC50 was more than 200 µM and the IC50 is more than 200 µM. For the compound `c1ccc(-c2nnc(SCc3nc4ccccc4[nH]3)o2)cc1`, the EC50 is more than 200 µM and the IC50 was 31.6 µM. `CC(C)CCC[C@@H](C)C1CCC2[C@@H]3CCC4C[C@@H](CCCC=C(c5cc(Cl)c(O)c(C(=O)O)c5)c5cc(Cl)c(O)c(C(=O)O)c5)CC[C@]4(C)C3CC[C@@]21C` (stereo not given in full): the EC50 is 63.1 µM and the IC50 was 166 µM. For `Cc1ccc2c(c1)nc1n2C(c2c(F)cccc2F)SC1` (stereo not given), in that order: more than 200 µM and 33.1 µM. Regarding `O=C(CCCC[n+]1ccccc1)Sc1ccccc1C(=O)Nc1ccc(S(=O)(=O)c2ccc(NS(=O)(=O)Cc3ccccc3[N+](=O)[O-])cc2)cc1`, the EC50 was 9.55 µM and the IC50 is more than 200 µM.

As for `O=C1NC2CC1C(O)C2O` (stereo not given), the EC50 is more than 200 µM and the IC50 is more than 200 µM. Regarding `c1cc(-c2cscc2-c2ccsc2)cs1`, the EC50 was more than 200 µM and the IC50 amounted to 110 µM. For `O=C1c2ccccc2C(=O)c2c1sc1nc3ccccc3n21`, in that order: more than 200 µM and 8.91 µM.

Consider `O=C(O)c1cc(N=Nc2ccc(/C=C/c3ccc(N=Nc4cc(C(=O)O)c(O)c5ccccc45)cc3S(=O)(=O)O)c(S(=O)(=O)O)c2)c2ccccc2c1O`, for which the EC50 was 46.8 µM and the IC50 came out at 72.4 µM. In the same order, the values of `COC(=O)c1ccc(C)cc1CC1Cc2ccc(C)cc2C1=O` (stereo not given) are more than 200 µM and 4.79 µM. In the case of `O=C(NC1=NCC(CN2CCN(c3ccccc3)CC2)O1)Nc1ccccc1` (stereo not given), the EC50 is more than 200 µM and the IC50 came out at 155 µM. For `CN(C)c1ccc(/C=C(\NC(=O)c2ccccc2)C(=O)NC(Cc2c[nH]c3ccccc23)C(=O)O)cc1` (stereo not given), in that order: more than 100 µM and more than 100 µM. `NC(CC(C(=O)O)c1ccccc1)C(=O)O` (stereo not given): the EC50 is more than 200 µM and the IC50 was found to be 112 µM. Take `CC1=CC(=O)N(n2c(-c3ccccc3)n[nH]c2=O)C1=O`: the EC50 is more than 200 µM and the IC50 is more than 200 µM. Take `COC(=O)/C=C\C(C#N)(C#N)N=Cc1ccc(Br)cc1`: the EC50 was more than 20 µM and the IC50 is 1.02 µM.

As for `COc1ccc(-n2nnnc2C2(Nc3ccccc3)CCN(Cc3ccccc3)CC2)cc1`, the EC50 is more than 200 µM and the half-inhibitory concentration (IC50) was more than 200 µM. For `O=C(NCCOC(=O)CCCCCCCCC(=O)OCCNC(=O)NC(=O)c1cn(Cc2ccccc2)c(=O)[nH]c1=O)NC(=O)c1cn(Cc2ccccc2)c(=O)[nH]c1=O`, the EC50 was more than 43.7 µM and the concentration for half-maximal inhibition (IC50) is more than 43.7 µM.

Consider `CCOP(=O)(OCC)c1c(C(=O)OC)cc(=O)[nH]c1-c1ccc(C)cc1`, for which the EC50 was more than 200 µM and the IC50 was 7.94 µM. Consider `NC(N)=N/N=C/c1c(-c2ccc(Cl)c(Cl)c2Cl)nc2sccn12`, for which the EC50 is 0.191 µM and the IC50 was 1.07 µM. For the compound `CN(C)c1ccc(/C=C(\C#N)c2ccccc2Cl)cc1`, the EC50 is more than 15.8 µM and the IC50 stood at 4.47 µM. As to `CCOC(=O)Nc1cc(C)c(NC(=O)CN(CC)CC)c(C)c1`, the EC50 is more than 200 µM and the IC50 was more than 200 µM. Take `O=C(Nc1nc(C23CC4CC(CC(C4)C2)C3)cs1)c1cc2ccc(O)cc2oc1=O`: the EC50 was more than 200 µM and the IC50 was 7.41 µM. As for `O=C(O)c1cc(N=Cc2cc(O)ccc2O)ccc1O`, the EC50 was more than 182 µM and the IC50 amounted to 22.9 µM. For `N#CCCN(CCC#N)c1ccc(/C=C2\N=C(c3ccccc3)N(c3ccccc3)C2=O)cc1`, the EC50 was more than 200 µM and the IC50 stood at 7.76 µM. As to `C1=CC2CCC1CN2CCC1CNc2ccccc21` (stereo not given), the result was inactive. Take `O=c1[nH]c(=O)n(C2OC(CO)C(O)C2O)cc1NN=NCc1ccccc1` (stereo not given): the EC50 was more than 182 µM and the IC50 is more than 182 µM.

In the case of `C=CC(CCC(C)OC(CCC)OCC)[Si](C)(C)C` (stereo not given), the EC50 is more than 91.2 µM and the IC50 was more than 91.2 µM. Turning to `COc1cc2c(cc1OC)C13CC[N+]4(C)CC5=CCOC6CC(=O)N2C1C6C5CC34[O-]` (stereo not given), the outcome was inactive.

For `Nc1ccc(SSc2ccc(N)cc2)cc1`, the EC50 is more than 200 µM; the half-inhibitory concentration (IC50) was 25.1 µM and 29.5 µM. As for `CN(C)C(=S)/N=C1\SC(=Nc2ccccc2)C(=Nc2ccccc2)N1c1ccc([N+](=O)[O-])cc1`, the EC50 is more than 200 µM and the IC50 came to 138 µM. For `Oc1cccc2cccnc12`, the EC50 is more than 1230 µM, the result was inactive and the IC50 is 2.34 µM. As to `Nc1ccc(S(=O)(=O)O)cc1[N+](=O)[O-]`, the EC50 was more than 1150 µM and the IC50 is more than 1150 µM. `CC[C@H](C)[C@H](NC(=O)N(CCC#N)CCN(CCN(C(=O)N[C@@H](Cc1ccccc1)C(=O)OC)c1ccccc1)C(=O)N[C@H](C(=O)OC)C(C)C)C(=O)OC`: the outcome was inactive. Regarding `O=C1NC(Cc2ccc(O)cc2)C(=O)NC1Cc1ccc(O)cc1` (stereo not given), the EC50 is more than 100 µM and the IC50 was more than 100 µM.
